Patent publication US9295626B2, “Compositions comprising isosorbide monoester and N-hydroxypyridones” (Clariant International Ltd., priority 2011, dated 2016)

Experiments:
Fusarium solani = experiment: Antimicrobial efficacy, MIC by agar dilution; type: cell-based; conditions: Sabouraud 4% dextrose agar pH 5.6
From the text: (§1) Below, the antimicrobial efficacy of a composition according to the invention consisting of 50% by weight of isorbide caprylate 1 and 50% by weight of a 10% by weight strength solution of the monoethanolamine salt of 4-methyl-6-(2,4,4-trimethylpentyl)-1-hydroxy-2-pyridone (Octopirox®, 100% by weight strength, Clariant) in butyl polyglycol against bacteria, fungi and yeasts is examined (hereinbelow, the composition is referred to as “composition A”). For the tests with bacteria, composition A was diluted with butyl polyglycol and then, at 50° C., added to liquid CASO agar (casein-peptone agar) buffered to pH 7 (+/−0.2) in various concentrations (hereinbelow referred to as compositions B1, B2, etc.). For the tests with fungi and yeasts, composition A was diluted with butyl polyglycol and then added to liquid Sabouraud 4% dextrose agar buffered to pH 5.6 (+/−0.2) in various concentrations (hereinbelow referred to as compositions PH1, PH2, etc.). The compositions B1, B2, etc. and PH1, PH2 etc. were each poured into Petri dishes and each inoculated with identical amounts of bacteria, fungi and yeasts. The minimum inhibitory concentration (MIC) is the concentration at which inhibition of the growth of the bacteria, fungi and yeasts in the compositions B1, B2, etc. and PH1, PH2, etc. occurs.
(§2) The minimum inhibitory concentrations for the pure substances isosorbide caprylate 1 and Octopirox® were determined analogously.
(§3) The values determined for the minimum inhibitory concentrations “MIC mixture”, stated in Table 1 below, are based on the concentrations of composition A.
(§4) The values determined for the minimum inhibitory concentrations “QA” and “QB”, stated in Table 1 below, have already been corrected for the dilution effect of the butyl polyglycol.
(§5) Kull et al., Applied Microbiology 1961, 9, 538 using the formula below: SE=Qa/QA+Qb/QB where • Qa is the minimum inhibitory concentration of isosorbide caprylate 1 in the mixture employed, • QA is the minimum inhibitory concentration of isosorbide caprylate 1, • Qb is the minimum inhibitory concentration of Octopirox® in the mixture employed and • QB is the minimum inhibitory concentration of Octopirox®.
(§6) The values for Qa and Qb are determined from the values for the mixtures (“MIC mixture”) by multiplying the minimum inhibitory concentrations determined for Qa with the factor 0.5 and for Qb with the factor 0.05, because of the proportions of the ingredients—50% by weight of isosorbide caprylate 1 and 50% by weight of a 10% by weight strength solution of Octopirox® in butyl polyglycol—in composition A according to the invention examined.
(§7) If an SE value>1 is obtained, an antagonistic effect is present.
(§8) Analogously to the determination of the antimicrobial activity according to the above example B), the antimicrobial activity of a mixture comprising, firstly, 89.6% by weight of isosorbide dicaprylate and 9.4% by weight of isosorbide monocaprylate (remainder: 1% by weight) (hereinbelow referred to as “isosorbide dicaprylate”) and, secondly, pure isosorbide was determined in further test series.

Penicillium minioluteum = experiment: Antimicrobial efficacy, MIC by agar dilution; type: cell-based; conditions: Sabouraud 4% dextrose agar pH 5.6
From the text: as §1, §2, §3, §4, §5, §6, §7, §8

Penicillium funicolosium = experiment: Antimicrobial efficacy, MIC by agar dilution; type: cell-based; conditions: Sabouraud 4% dextrose agar pH 5.6
From the text: as §1, §2, §3, §4, §5, §6, §7, §8

Candida albicans = experiment: Antimicrobial efficacy, MIC by agar dilution; type: cell-based; conditions: Sabouraud 4% dextrose agar pH 5.6
From the text: as §1, §2, §3, §4, §5, §6, §7, §8

Enterobacter aerogenes = experiment: Antimicrobial efficacy, MIC by agar dilution; type: cell-based; conditions: CASO agar pH 7
From the text: as §1, §2, §3, §4, §5, §6, §7, §8

Aspergillus terreus = experiment: Antimicrobial efficacy, MIC by agar dilution; type: cell-based; conditions: Sabouraud 4% dextrose agar pH 5.6
From the text: as §1, §2, §3, §4, §5, §6, §7, §8

Escherichia coli = experiment: Antimicrobial efficacy, MIC by agar dilution; type: cell-based; conditions: CASO agar pH 7
From the text: as §1, §2, §3, §4, §5, §6, §7, §8

Staphylococcus aureus = experiment: Antimicrobial efficacy, MIC by agar dilution; type: cell-based; conditions: CASO agar pH 7
From the text: as §1, §2, §3, §4, §5, §6, §7, §8

Klebsiella pneumoniae = experiment: Antimicrobial efficacy, MIC by agar dilution; type: cell-based; conditions: CASO agar pH 7
From the text: as §1, §2, §3, §4, §5, §6, §7, §8

Pseudomonas oleovorans = experiment: Antimicrobial efficacy, MIC by agar dilution; type: cell-based; conditions: CASO agar pH 7
From the text: as §1, §2, §3, §4, §5, §6, §7, §8

Pseudomonas aeruginosa = experiment: Antimicrobial efficacy, MIC by agar dilution; type: cell-based; conditions: CASO agar pH 7
From the text: as §1, §2, §3, §4, §5, §6, §7, §8

Citrobacter freundii = experiment: Antimicrobial efficacy, MIC by agar dilution; type: cell-based; conditions: CASO agar pH 7
From the text: as §1, §2, §3, §4, §5, §6, §7, §8

Proteus vulgaris = experiment: Antimicrobial efficacy, MIC by agar dilution; type: cell-based; conditions: CASO agar pH 7
From the text: as §1, §2, §3, §4, §5, §6, §7, §8

Aspergillus brasiliensis = experiment: Antimicrobial efficacy, MIC by agar dilution; type: cell-based; conditions: Sabouraud 4% dextrose agar pH 5.6
From the text: as §1, §2, §3, §4, §5, §6, §7, §8

[1] = tested on: bacteria, fungi and yeasts; conditions: general statement, no test described, cited from earlier work
[2] = tested on: bacteria, fungi and yeasts; experiment: Antimicrobial activity overall; type: cell-based
From the text: Below, the antimicrobial efficacy of a composition according to the invention consisting of 50% by weight of isorbide caprylate 1 and 50% by weight of a 10% by weight strength solution of the monoethanolamine salt of 4-methyl-6-(2,4,4-trimethylpentyl)-1-hydroxy-2-pyridone (Octopirox®, 100% by weight strength, Clariant) in butyl polyglycol against bacteria, fungi and yeasts is examined (hereinbelow, the composition is referred to as “composition A”). For the tests with bacteria, composition A was diluted with butyl polyglycol and then, at 50° C., added to liquid CASO agar (casein-peptone agar) buffered to pH 7 (+/−0.2) in various concentrations (hereinbelow referred to as compositions B1, B2, etc.). […]
The minimum inhibitory concentrations for the pure substances isosorbide caprylate 1 and Octopirox® were determined analogously. […]
as §8

[3] = MIC of Octopirox alone, corrected for butyl polyglycol dilution
[4] = MIC of Octopirox in the mixture (MIC mixture x 0.05)

Compound: Cc1cc(CC(C)CC(C)(C)C)n(O)c(=O)c1.NCCO (centres unmarked) [Octopirox®, monoethanolamine salt of 4-methyl-6-(2,4,4-trimethylpentyl)-1-hydroxy-2-pyridone]
- OB, meas. (Fusarium solani; [3]): 20 ppm
- Ob, calc. (Fusarium solani; [4]): 10 ppm
- OB, meas. (Penicillium minioluteum; [3]): 20 ppm
- Ob, calc. (Penicillium minioluteum; [4]): 10 ppm
- OB, meas. (Penicillium funicolosium; [3]): 20 ppm
- Ob, calc. (Penicillium funicolosium; [4]): 10 ppm
- OB, meas. (Candida albicans; [3]): 20 ppm
- Ob, calc. (Candida albicans; [4]): 10 ppm
- OB, meas. (Enterobacter aerogenes; [3]): 100 ppm
- Ob, calc. (Enterobacter aerogenes; [4]): 25 ppm
- OB, meas. (Aspergillus terreus; [3]): 20 ppm
- Ob, calc. (Aspergillus terreus; [4]): 10 ppm
- OB, meas. (Escherichia coli; [3]): 25 ppm
- Ob, calc. (Escherichia coli; [4]): 25 ppm
- OB, meas. (Staphylococcus aureus; [3]): 25 ppm
- Ob, calc. (Staphylococcus aureus; [4]): 25 ppm
- OB, meas. (Klebsiella pneumoniae; [3]): 50 ppm
- Ob, calc. (Klebsiella pneumoniae; [4]): 25 ppm
- OB, meas. (Pseudomonas oleovorans; [3]): 50 ppm
- Ob, calc. (Pseudomonas oleovorans; [4]): 25 ppm
- OB, meas. (Pseudomonas aeruginosa; [3]): 25 ppm
- Ob, calc. (Pseudomonas aeruginosa; [4]): 25 ppm
- OB, meas. (Citrobacter freundii; [3]): 50 ppm
- Ob, calc. (Citrobacter freundii; [4]): 25 ppm
- OB, meas. (Proteus vulgaris; [3]): 25 ppm
- Ob, calc. (Proteus vulgaris; [4]): 12.5 ppm
- OB, meas. (Aspergillus brasiliensis; [3]): 20 ppm
- Ob, calc. (Aspergillus brasiliensis; [4]): 10 ppm

Compound: CCCCCCCC(=O)O [caprylic acid]
- antimicrobial efficacy [1]: antimicrobially effective
- antimicrobial activity at a pH of 6 or above ([1]; pH of 6 or above): no antimicrobial activity

Compound: O[C@@H]1CO[C@H]2[C@@H]1OC[C@@H]2O [isosorbide]
- antimicrobial activity (summary of Table 2) ([2]; all bacteria, fungi and yeasts of Table 2): neither isosorbide nor isosorbide dicaprylate are antimicrobially active

Compound: isosorbide monocaprylate
- antimicrobial activity (concluded) ([2]; concluded from QA of isosorbide caprylate 1 and inactivity of its other constituents): significant antimicrobial activity
